Here are results for 77 compounds from publication PMC6792352, “Limited Chemical Structural Diversity Found to Modulate Thyroid Hormone Receptor in the Tox21 Chemical Library” (Environmental Health Perspectives, 2019).

This series in a line: in vitro. Particulars: rat, gh3-tre-luc cells.

Where a name gives a salt, the structure may show the parent alone.

Regarding `N=C(N)c1ccc(OCCCOc2ccc(C(=N)N)cc2Br)c(Br)c1` [Dibromopropamidine dihydrochloride], the midpoint of cytotoxicity (AC50 (uM) modified / 1000), the CC50 at 24 h, lay at 38.5 µM.
Regarding `CC=O` [Acetaldehyde], half-maximal cytotoxicity (AC50 (uM) modified / 1000) (CC50 at 24 h) was put at 3.09 µM. This CC50 at 24 h is about 12-fold lower than that of the compound before.
The compound `CC(=O)NC[C@H]1CN(c2ccc(N3CCOCC3)c(F)c2)C(=O)O1` [Linezolid] had a CC50 at 24 h (AC50 (uM) modified / 1000) of more than 50 µM.
For `O=C(O)c1ccc(OCCn2ccnc2)cc1` [Dazoxiben], the CC50 at 24 h (AC50 (uM) modified / 1000) is more than 50 µM.
For the setting “AC50 (uM) modified / 1000”, `Nc1nc(N)c(N)c(N)n1` [2,4,5,6-Pyrimidinetetramine sulfate (1:1)] returned a CC50 at 24 h of more than 90 µM.
Compound `CN1CCC(=C2c3ccccc3C=Cc3ccccc32)CC1` [Cyproheptadine] showed a CC50 at 24 h (AC50 (uM) modified / 1000) of 12.2 µM.
Still for that read-out and setting: the figure for `C=C1C[C@H]2[C@@H]3CCC4=CC(=O)C=C[C@]4(C)[C@@]3(F)[C@@H](O)C[C@]2(C)[C@@]1(O)C(=O)COC(C)=O` [Fluprednidene acetate] is more than 50 µM.
For `CC[C@@H](C(=O)[C@@H](C)[C@@H](O)[C@H](C)CCc1ccc(C)c(O)c1C(=O)O)[C@H]1O[C@](CC)([C@H]2CC[C@](O)(CC)[C@H](C)O2)C[C@@H]1C` [Lasalocid sodium], the CC50 at 24 h (AC50 (uM) modified / 1000) worked out at 2.85 µM.
Still for that read-out and setting: under `C/C(=C\C(=O)OCCCCCCCCC(=O)O)C[C@@H]1OC[C@H](C[C@@H]2O[C@H]2[C@@H](C)[C@H](C)O)[C@@H](O)[C@H]1O` [Mupirocin] stands more than 50 µM; under `CCC(=O)Nc1cccc(N)c1` [N-(3-Aminophenyl)propanamide], more than 90 µM; under `C/C=C/CC#N` [3-Pentenenitrile], more than 90 µM.
Compound `CCC(C)=NO` [2-Butanone oxime] yielded a CC50 at 24 h (AC50 (uM) modified / 1000) of more than 90 µM.
On the same count and under the same terms, the figure for `CC(=O)O[C@H]1C[C@H](O[C@H]2[C@@H](O)C[C@H](O[C@H]3[C@@H](O)C[C@H](O[C@H]4CC[C@@]5(C)[C@H](CC[C@@H]6[C@@H]5C[C@@H](O)[C@]5(C)[C@@H](C7=CC(=O)OC7)CC[C@]65O)C4)O[C@@H]3C)O[C@@H]2C)O[C@H](C)[C@H]1O[C@@H]1O[C@H](CO)[C@@H](O)[C@H](O)[C@H]1O` [Lanatoside C] is more than 50 µM; for `CC(C)NCC(O)c1ccc(O)c(O)c1` (centres unmarked) [Isoproterenol hydrochloride] it is more than 90 µM.
Under “AC50 (uM) modified / 1000, Tox21_110001=Tox21_201394, viability, 1 nM T3 present, 24 h”, `CC(C)Nc1nc(Cl)nc(NC(C)C)n1` [Propazine] came in with a CC50 at 24 h of more than 90 µM.
For the setting “AC50 (uM) modified / 1000”, `CC[N+](C)(CC)CCOC(=O)C1c2ccccc2Oc2ccccc21` [Methantheline bromide] registered a CC50 at 24 h of more than 50 µM.
On the same count and under the same terms, the figure for `C[C@]12CCC(=O)C[C@@H]1CC[C@@H]1[C@@H]2CC[C@]2(C)C=CC[C@@H]12` [Androstenone] is more than 50 µM; for `CCCCCCCC(=O)O` [Octanoic acid] it is more than 90 µM; for `CCCCCCCCCCCCc1ccc(O)cc1` [4-Dodecylphenol] it is 15.6 µM.
Where the note is “AC50 (uM) modified / 1000”, `Cc1ncc(CO)c(CN)c1O` [Pyridoxamine dihydrochloride] yielded a CC50 at 24 h of more than 50 µM.
`CC1COC(=O)O1` (centres unmarked) [Propylene carbonate] displayed a CC50 at 24 h (AC50 (uM) modified / 1000) of more than 90 µM.
Under “AC50 (uM) modified / 1000”, `CCn1c2ccccc2c2cc(N)ccc21` [3-Amino-9-ethylcarbazole hydrochloride] registered a CC50 at 24 h of more than 90 µM.
`COc1ccccc1NC(=O)CC(C)=O` [N-(2-Methoxyphenyl)-3-oxobutanamide]: the CC50 at 24 h (AC50 (uM) modified / 1000) was more than 90 µM.
On the same count and under the same terms, the figure for `CCCCCCCCC=O` [Nonanal] is more than 90 µM.
Still for that read-out and setting: under `COc1ccc(C[C@@H](C)NC[C@H](O)c2ccc(O)c(NC=O)c2)cc1` [Formoterol hemifumarate] stands more than 50 µM; under `CC1=CC(C)C(C=O)CC1` (centres unmarked) [2,4-Dimethyl-3-cyclohexene-1-carboxaldehyde], more than 90 µM; under `S=C(S)NCCNC(=S)S` [Nabam-sodium], more than 90 µM.
Same read-out and setting: under `c1ccc2cc3c(ccc4ccccc43)cc2c1` [Benz(a)anthracene] stands more than 90 µM; under `O=C(Nc1ccc(Cl)cc1)Nc1ccc(Cl)c(C(F)(F)F)c1` [Cloflucarban], 6.22 µM.
As to `O=C1CC2(CCCC2)CC(=O)N1CCNCC1COc2ccccc2O1` (centres unmarked) [Binospirone mesylate], the CC50 at 24 h (AC50 (uM) modified / 1000) is 41.9 µM.
With `O=C1OC(=O)c2cc(Oc3ccc4c(c3)C(=O)OC4=O)ccc21` [5,5'-Oxybis(2-benzofuran-1,3-dione)], the CC50 at 24 h (AC50 (uM) modified / 1000) is more than 90 µM.
Same read-out and setting: under `COC(=O)/C=C/C(C)=C\C=C\C(C)=C\C=C\C=C(C)\C=C\C=C(C)\C=C\C(=O)O` [Bixin] stands more than 90 µM.
For the compound `O=C(NCC1CCCCN1)c1cc(OCC(F)(F)F)ccc1OCC(F)(F)F` (centres unmarked) [Flecainide acetate], under “AC50 (uM) modified / 1000”, the CC50 at 24 h was 42.2 µM.
Consider `CC(C)=C[C@@H]1[C@@H](C(=O)OCc2coc(Cc3ccccc3)c2)C1(C)C` [Bioresmethrin], for which, under “AC50 (uM) modified / 1000”, the CC50 at 24 h was more than 90 µM.
`COC(=O)CC(C)=O` [Methyl acetoacetate]: the CC50 at 24 h (AC50 (uM) modified / 1000) is more than 90 µM.
`C#C[C@]1(O)CC[C@H]2[C@@H]3CCc4cc(OC)ccc4[C@H]3CC[C@@]21C` [Mestranol]: the CC50 at 24 h (AC50 (uM) modified / 1000) is more than 90 µM.
For `Oc1ccc(Cl)cc1` [4-Chlorophenol], the CC50 at 24 h (AC50 (uM) modified / 1000) is more than 90 µM.
The same measure, in the same setting: under `C[N+]1(C)CCCCC1` [Mepiquat chloride] stands more than 90 µM.
Still for that read-out and setting: the figure for `C=CCCCCCCCCC=O` [Undec-10-enal] is more than 90 µM; for `N[C@@H]1[C@H]2CN(c3nc4c(cc3F)c(=O)c(C(=O)O)cn4-c3ccc(F)cc3F)C[C@@H]12` [Trovafloxacin mesylate] it is 20.9 µM; for `O=S(=O)(O)c1ccc2[nH]c(-c3ccccc3)nc2c1` [Ensulizole] it is more than 90 µM.
Where the note is “AC50 (uM) modified / 1000”, `Cc1nc(NS(=O)(=O)c2ccc(N)cc2)nc(C)c1Br` [Sulfabromomethazine] yielded a CC50 at 24 h of more than 50 µM.
Still for that read-out and setting: the figure for `CN1CCN(CCC(=O)N2c3ccccc3Sc3ccc(C(F)(F)F)cc32)CC1` [Ftormetazine] is 25.8 µM; for `Fc1cccc(Cl)c1CCl` [1-Chloro-2-(chloromethyl)-3-fluorobenzene] it is more than 90 µM.
Still for that read-out and setting: the figure for `N#Cc1cccc(C#N)c1` [1,3-Benzenedicarbonitrile] is more than 90 µM.
Where the note is “AC50 (uM) modified / 1000”, `CCCCCC(N)=O` [Hexanamide] showed a half-maximal cytotoxic concentration (CC50) at 24 h of more than 90 µM.
For the compound `O=[N+]([O-])c1cc(Cl)c(Cl)c(Cl)c1` [3,4,5-Trichloronitrobenzene], the CC50 at 24 h (AC50 (uM) modified / 1000) is more than 90 µM.
Where the note is “AC50 (uM) modified / 1000, Tox21_110001=Tox21_200362, viability, 1 nM T3 present, 24 h”, `CC(Cl)CCl` (centres unmarked) [1,2-Dichloropropane] yielded a CC50 at 24 h of more than 90 µM.
The compound `CCCCCCCCSCCO` [2-Hydroxyethyl octyl sulfide] yielded a CC50 at 24 h (AC50 (uM) modified / 1000) of more than 90 µM.
Consider `CCOC(=O)CC` [Ethyl propionate], for which the CC50 at 24 h (AC50 (uM) modified / 1000) was more than 90 µM.
`C=CCCC` [1-Pentene] came in with a CC50 at 24 h (AC50 (uM) modified / 1000) of more than 90 µM.
Compound `O=C(O)CNc1ccccc1` [Potassium anilinoacetate] yielded a CC50 at 24 h (AC50 (uM) modified / 1000) of more than 90 µM.
The same measure, in the same setting: under `O=[N+]([O-])c1ccc2c3c(cccc13)CC2` [5-Nitroacenaphthene] stands more than 90 µM; under `CC(=O)CC(=O)Nc1ccccc1` [Acetoacetanilide], more than 90 µM.
Regarding `Cc1cc(Cl)ccc1O` [4-Chloro-2-methylphenol], the CC50 at 24 h (AC50 (uM) modified / 1000) is more than 90 µM.
On the same count and under the same terms, under `CC(CC(C)C)=NO` [N-Hydroxy-4-methylpentan-2-imine] stands more than 90 µM.
For the setting “AC50 (uM) modified / 1000, Tox21_110001=Tox21_113138, viability, 1 nM T3 present, 24 h”, `Cc1ccc2c(c1)[C@]13CCCC[C@@H]1[C@H](C2)N(C)CC3` [Dimemorfan phosphate] gave a half-maximal cytotoxic concentration (CC50) at 24 h of more than 50 µM.
As for `CC(O)CC(C)(C)O` (centres unmarked) [2-Methyl-2,4-pentanediol], the CC50 at 24 h (AC50 (uM) modified / 1000) was more than 90 µM.
The same measure, in the same setting: under `OCCC1CCCCN1` (centres unmarked) [2-?Piperidineethanol] stands more than 90 µM.
Still for that read-out and setting: the figure for `CCCCOC(=O)CCC(C)=O` [Butyl 4-oxopentanoate] is more than 90 µM; for `CCOC(=O)CC(C)C` [Ethyl isovalerate] it is more than 90 µM.
`COc1ccccc1OCC1CNC(=O)O1` (centres unmarked) [Mephenoxalone] displayed a CC50 at 24 h (AC50 (uM) modified / 1000) of more than 50 µM.
The same measure, in the same setting: the figure for `CSc1ccc(/C=C2/C(C)=C(CC(=O)O)c3cc(F)ccc32)cc1` [Sulindac sulfide] is more than 50 µM.
With `CC(C)C(=O)OC/C=C/c1ccccc1` [3-Phenylprop-2-en-1-yl 2-methylpropanoate], for the setting “AC50 (uM) modified / 1000”, the CC50 at 24 h is more than 90 µM.
Under “AC50 (uM) modified / 1000”, `COCCC#N` [3-Methoxypropionitrile] yielded a CC50 at 24 h of more than 90 µM.
For the compound `CCC(=O)OCC(=O)[C@@]1(OC(=O)CC)[C@H](C)C[C@H]2[C@@H]3CCC4=CC(=O)C=C[C@]4(C)[C@@]3(F)[C@@H](O)C[C@@]21C` [Dexamethasone dipropionate], the CC50 at 24 h (AC50 (uM) modified / 1000) is more than 50 µM.
Take `Nc1c(S(=O)(=O)O)cc(Br)c2c1C(=O)c1ccccc1C2=O` [Bromamine acid sodium salt]: the CC50 at 24 h (AC50 (uM) modified / 1000) came out at 38.3 µM.
In turn, `C#C[C@]1(O)CC[C@H]2[C@@H]3CCC4=Cc5oncc5C[C@]4(C)[C@H]3CC[C@@]21C` [Danazol] gave a CC50 at 24 h (AC50 (uM) modified / 1000) of 57.4 µM.
Regarding `CCNS(=O)(=O)C(F)(F)C(F)(F)C(F)(F)C(F)(F)C(F)(F)C(F)(F)C(F)(F)C(F)(F)F` [N-Ethylperfluorooctanesulfonamide], the CC50 at 24 h (AC50 (uM) modified / 1000) was more than 90 µM.
Same read-out and setting: the figure for `Cc1nc(C)nc(N2C[C@@H](C)N(c3ccnc([C@@H](C)O)n3)[C@@H](C)C2)n1` [CP-642931] is more than 50 µM.
Same read-out and setting: under `O=C(CBr)c1ccc(O)cc1` [2-Bromo-4-hydroxyacetophenone] stands more than 90 µM; under `O=C=Nc1ccc(Cl)cc1` [4-Chlorophenyl isocyanate], more than 90 µM.
In turn, `C=C(C)C(=O)OCCOC1CC2CC1C1C=CCC21` (centres unmarked) [(Dicyclopentadienyloxy)ethyl methacrylate] gave a CC50 at 24 h (AC50 (uM) modified / 1000) of more than 100 µM.
In the case of `CN(CCOc1ccc(NS(C)(=O)=O)cc1)CCc1ccc(NS(C)(=O)=O)cc1` [Dofetilide], the CC50 at 24 h (AC50 (uM) modified / 1000) was more than 50 µM.
Still for that read-out and setting: the figure for `CCC[N+]1(C)CCCCC1` [1-Methyl-1-propylpiperidinium bromide] is more than 90 µM; for `CC1CC(CC2CCC(N)C(C)C2)CCC1N` (centres unmarked) [Bis(4-amino-3-methylcyclohexyl)methane] it is 46.8 µM; for `NS(=O)(=O)c1ccccc1OC(F)(F)F` [2-(Trifluoromethoxy)benzenesulfonamide] it is more than 90 µM.

The CC50 is the concentration that lowers cell viability or growth by half.
